According to US8927551B2, “Isoxazolines as inhibitors of fatty acid amide hydrolase” (Infinity Pharmaceuticals, Inc., priority 2009, dated 2015):

These molecules were tested against T1, human FAAH (Homo sapiens, UniProt O00519) (assay: Inhibition of human FAAH (fluorescence assay, AMC Arachidonoyl Amide substrate)). Conditions: solubilized human FAAH from transfected COS-7 cells; 30 minutes preincubation; 20 μM AMC-Arachidonoyl substrate; 4 hours at room temperature.
T1 construct: host or cells: COS-7 cells, transient transfection; 13,000 g membrane fraction solubilised in 1% Triton X-100
T1 sequence (O00519 1-579): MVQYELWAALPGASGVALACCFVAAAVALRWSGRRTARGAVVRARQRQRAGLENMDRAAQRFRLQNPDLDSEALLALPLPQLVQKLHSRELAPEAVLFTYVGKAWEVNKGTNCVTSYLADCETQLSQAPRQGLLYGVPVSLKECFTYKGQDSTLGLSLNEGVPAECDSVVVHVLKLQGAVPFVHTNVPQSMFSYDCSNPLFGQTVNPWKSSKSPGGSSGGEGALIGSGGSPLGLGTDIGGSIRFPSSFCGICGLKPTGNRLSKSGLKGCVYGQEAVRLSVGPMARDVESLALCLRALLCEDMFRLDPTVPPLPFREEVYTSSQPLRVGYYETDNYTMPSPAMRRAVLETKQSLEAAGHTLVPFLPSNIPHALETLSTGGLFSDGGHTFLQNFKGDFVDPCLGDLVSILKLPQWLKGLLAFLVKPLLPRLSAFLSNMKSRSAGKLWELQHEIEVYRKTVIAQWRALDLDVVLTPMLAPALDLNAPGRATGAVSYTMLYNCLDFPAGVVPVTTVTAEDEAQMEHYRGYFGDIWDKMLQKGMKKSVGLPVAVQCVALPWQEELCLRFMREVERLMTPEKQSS
Type: biochemical
Description: Human FAAH Preparation: COS-7 cells were split the day before, 1:5 into 150 mm×25 mm cell culture dishes (Corning Inc., Cat. No. 430599). Transient transfection took place at 30-40% confluency according to FuGENE 6 Transfection Reagent (Roche, Cat. No. 11814 443 001).
Transfection Procedure: The FuGENE transfection 6 reagent (45 uL) was added to 1410 μL of media (DMEM, serum free without pen/strep) in a 15 mL conical tube and incubated at room temp for 5 minutes, followed by the addition of FAAH plasmid DNA (15 μg) (OriGene Cat. No. TC119221, Genbank Accession No. NM 001441.1, 0.67 ug/uL) and a further incubation of 15 minutes at room temperature. The resulting solution was added into one dish of 30-40% confluent COS-7 cells in a drop-wise manner. The COS-7 cell dish was subsequently incubated for 48 hours. The cells are then harvested.
Harvest procedure: Media was aspirated from the dishes and the cells rinsed with 10 mL PBS. The PBS was removed and 3 mL of PBS added to the dish. The dish was scraped to resuspend the cells, and the subsequent cell suspension collected into a 15 mL conical tube. The cells were pelleted by centrifugation at 1200 rpm for 5 minutes in a bench top centrifuge. PBS was removed and the cell pellet snap frozen in liquid nitrogen and stored at −80° C.
COS-7 Cells—FAAH Purification: • (1) Fractionation: Frozen cell pellets from transient transfections were thawed on ice and resuspended in 12.5 mM Hepes pH 8.0, 100 mM NaCl, 1 mM EDTA (10 mL/0.2 g cell pellet). The pellets were dounce homogenized and then sonicated to produce cell extract. The cell extract was subsequently centrifuged at 1000 g to remove cellular debris. The pellet was discarded and the supernatant centrifuged at 13,000 g for 20 minutes. The pellet contained membrane bound FAAH. The supernatant was discarded and the pellet resolubilized. • (2) Re-solubilization: The fraction of interest, (13,000 g, membrane fraction) was re-suspended in 2.3 mL re-suspension buffer (20 mM Hepes pH 7.8, 10% v/v Glycerol, 1 mM EDTA, 1% Triton X-100) and the sample incubated on ice for 1 hour and then centrifuged to remove any particulate matter. The supernatant containing solubilized human FAAH was aliquoted and snap frozen in liquid nitrogen and stored at −80° C. until use. • (3) Characterization: Protein Concentration determined by Bradford assay. • SDS gel and Western blot to confirm presence of FAAH • FAAH activity assay • Km determination—96-well assay • Linear dependence—96-well assay • Standard compound Ki determination—384-well assay
Human FAAH assay; Experimental Protocol: A 0.1 mg/mL Human FAAH solution was made up in FAAH reaction buffer, and 24 ul pipeted into a 384 well plate. To this was added 1 μL of a 3 fold serially diluted inhibitor from a DMSO stock solution. The FAAH solution and inhibitor were incubated for 30 minutes at room temperature. The FAAH reaction was initiated by the addition of 25 μL of 40 μM AMC Arachidonoyl Amide in FAAH reaction buffer, yielding a final reaction human FAAH preparation concentration of 0.05 mg/ml and AMC-Arachidonoyl substrate concentration of 20 μM, reaction volume 50 μL. The reaction was allowed to proceed for 4 hours at room temperature. The reaction was stopped by the addition of 25 μL 12 μM a-ketoheterocycle (Cayman Chemicals, catalogue # 10435). The microtiter plate was read in the envision plate reader.
The raw fluorescence was plotted on the y axis and the inhibitor concentration on the x axis to give a dose response inhibition curve. The data was fitted to a single site competitive inhibition equation, fixing the Km for the human enzyme to 12 μM and 9 μM respectively.

| Compound | Ki [nM] |
| --- | --- |
| C[C@@]1(c2cnc(-c3ccccc3)s2)CC(Oc2cccnc2)=NO1 [II-23b] | ≤ 100 |
| BrC1=NO[C@H](c2cc(-c3ccccc3)cs2)C1 [II-8b] | ≤ 100 |
| C[C@]1(c2cnc(-c3ccccc3)s2)CC(Oc2cncnc2)=NO1 [II-22a] | ≤ 100 |
| CC(C)(C)OC(=O)N1CCN(C[C@@H]2CC(Br)=NO2)CC1 [II-14b] | ≤ 100 |
| O=C(O)c1ccc(OC2=NO[C@H](c3ccc(-c4cccnc4)s3)C2)cn1 [II-27b] | ≤ 100 |
| C[C@@H]1C(Br)=NO[C@@H]1c1cnc(-c2ccccc2)s1 [II-19b] | ≤ 100 |
| c1ccc(-c2ncc([C@@H]3CC(Oc4cccnc4)=NO3)s2)cc1 [II-21b] | ≤ 100 |
| C[C@]1(c2cnc(-c3ccccc3)s2)CC(Oc2cccnc2)=NO1 [II-23a] | ≤ 100 |
| BrC1=NO[C@H](c2ccc(-c3cccnc3)s2)C1 [II-25b] | ≤ 100 |
| CC(C)(C)OC(=O)N1CCC([C@H]2CC(Br)=NO2)CC1 [II-16a] | ≤ 100 |
| Cc1nc(-c2ccccc2)sc1[C@@]1(C)CC(Br)=NO1 [II-24a] | 100 to 1000 |
| CC(C)(C)OC(=O)Nc1nc2ccc([C@H]3CC(Br)=NO3)cc2s1 [II-13a] | 100 to 1000 |
| BrC1=NO[C@H](c2cnc3ccccc3c2)C1 [II-10b] | ≤ 100 |
| BrC1=NO[C@H](c2ccc3nccnc3c2)C1 [II-11b] | ≤ 100 |
| BrC1=NO[C@@H](c2cc(-c3ccccc3)cs2)C1 [II-8a] | ≤ 100 |
| BrC1=NO[C@@H](c2ccc3ncccc3c2)C1 [II-9a] | ≤ 100 |
| BrC1=NO[C@H](c2cccnc2)C1 [II-2b] | ≥ 1000 |
| c1cncc(-c2ccc([C@H]3CC(Oc4cncnc4)=NO3)s2)c1 [II-26a] | ≤ 100 |
| O[C@@H](CNC1=NO[C@@H](c2cc(-c3ccccc3)cs2)C1)c1ccccc1 [II-31a] | ≥ 1000 |
| C[C@]1(c2cnc(-c3ccccc3)s2)CC(Oc2ccc(S(C)(=O)=O)nc2)=NO1 [II-29a] | ≤ 100 |

| Compound | Ki [nM] |
| --- | --- |
| BrC1=NO[C@@H](c2cnc(-c3ccccc3)s2)C1 [II-6a] | ≤ 100 |
| BrC1=NO[C@H](c2cnn(-c3ccccc3)c2)C1 [II-4-b] | 100 to 1000 |
| C[C@@H]1C(Br)=NO[C@H]1c1cnc(-c2ccccc2)s1 [II-20a] | ≥ 1000 |
| BrC1=NO[C@@H](c2cccnc2)C1 [II-2a] | ≥ 1000 |
| O=C(OCc1ccccc1)N1CCC([C@@H]2CC(Br)=NO2)CC1 [II-15b] | 100 to 1000 |
| c1ccc(-c2ncc([C@H]3CC(Oc4cccnc4)=NO3)s2)cc1 [II-21a] | ≤ 100 |
| O=C(OCc1ccccc1)N1CCC([C@H]2CC(Br)=NO2)CC1 [II-15a] | 100 to 1000 |
| BrC1=NO[C@@H](c2csc(-c3ccccc3)n2)C1 [II-5a] | ≥ 1000 |
| CC(C)(C)OC(=O)Nc1nc2ccc([C@@H]3CC(Br)=NO3)cc2s1 [II-13b] | 100 to 1000 |
| BrC1=NO[C@@H](c2cnn(-c3ccccc3)c2)C1 [II-4a] | 100 to 1000 |
| C[C@@]1(c2cnc(-c3ccccc3)s2)CC(Oc2ccc(S(C)(=O)=O)nc2)=NO1 [II-29b] | ≤ 100 |
| Cc1nc(-c2ccccc2)sc1[C@]1(C)CC(Br)=NO1 [II-24b] | 100 to 1000 |
| C[C@@]1(c2cnc(-c3ccccc3)s2)CC(Br)=NO1 [II-18b] | ≤ 100 |
| BrC1=NO[C@@H](c2ccccn2)C1 [II-3a] | ≥ 1000 |
| C[C@@]1(c2cnc(-c3ccccc3)s2)CC(Oc2cncnc2)=NO1 [II-22b] | ≤ 100 |
| BrC1=NO[C@H](c2ccc3ncccc3c2)C1 [II-9b] | ≤ 100 |
| O=C(O)c1ccc(OC2=NO[C@@H](c3ccc(-c4cccnc4)s3)C2)cn1 [II-27a] | ≤ 100 |
| C[C@H]1C(Br)=NO[C@H]1c1cnc(-c2ccccc2)s1 [II-19a] | ≤ 100 |
| BrC1=NO[C@@H](c2ccc(-c3cccnc3)s2)C1 [II-25a] | ≤ 100 |
| BrC1=NO[C@@H](c2cnc3ccccc3c2)C1 [II-10a] | ≤ 100 |

| Compound | Ki [nM] |
| --- | --- |
| C[C@]1(c2cnc(-c3ccccc3)s2)CC(Br)=NO1 [II-18a] | ≤ 100 |
| BrC1=NO[C@H](c2ccc(-c3ccccc3)s2)C1 [II-7b] | ≤ 100 |
| BrC1=NO[C@@H](c2ccncc2)C1 [II-1a] | ≥ 1000 |
| Clc1ccc(-c2ncc([C@H]3CC(Br)=NO3)s2)cc1 [II-17a] | ≤ 100 |
| CC(C)(C)OC(=O)N1CCN(C[C@H]2CC(Br)=NO2)CC1 [II-14a] | ≤ 100 |
| BrC1=NO[C@@H](c2ccc(-c3ccccc3)s2)C1 [II-7a] | ≤ 100 |
| BrC1=NO[C@@H](c2ccc3nccnc3c2)C1 [II-11a] | ≤ 100 |
| O[C@H](CNC1=NO[C@@H](c2cc(-c3ccccc3)cs2)C1)c1ccccc1 [II-30a] | ≥ 1000 |
| BrC1=NO[C@H](c2csc(-c3ccccc3)n2)C1 [II-5b] | ≥ 1000 |
| BrC1=NO[C@H](c2ccccn2)C1 [II-3b] | ≥ 1000 |
| c1cncc(-c2ccc([C@@H]3CC(Oc4cncnc4)=NO3)s2)c1 [II-26b] | ≤ 100 |
| C[C@H]1C(Br)=NO[C@@H]1c1cnc(-c2ccccc2)s1 [II-20b] | ≥ 1000 |
| O[C@@H](CNC1=NO[C@H](c2cc(-c3ccccc3)cs2)C1)c1ccccc1 [II-31b] | ≥ 1000 |
| CS(=O)(=O)c1ccc(OC2=NO[C@H](c3cnc(-c4ccccc4)s3)C2)cn1 [II-28b] | ≤ 100 |
| CS(=O)(=O)c1ccc(OC2=NO[C@@H](c3cnc(-c4ccccc4)s3)C2)cn1 [II-28a] | ≤ 100 |
| Clc1ccc(-c2ncc([C@@H]3CC(Br)=NO3)s2)cc1 [II-17b] | ≤ 100 |
| CC(C)(C)OC(=O)N1CCC([C@@H]2CC(Br)=NO2)CC1 [II-16b] | ≤ 100 |
| BrC1=NO[C@H](c2ccncc2)C1 [II-1b] | ≥ 1000 |
| BrC1=NO[C@H](c2cnc(-c3ccccc3)s2)C1 [II-6b] | ≤ 100 |
